Test results: PubChem BioAssay (NCI)
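Results reflect a 48-hour exposure of cells in 96-well plates to compound at five concentrations. Abbreviation: GI50, concentration required for 50% inhibition of growth. TGI: concentration producing complete growth inhibition.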 Where a SMILES comes first, the peptide text is derived from it. [ ]: non-standard residue; d: D form. pGlu = O=C1CC[CH](C(=O)O)N1; Thz = O=C(O)[CH]1CSCN1

How the values were obtained:
Test in all cases: NCI anticancer screen, dose series, 48 h
[1] = test system: IGROV1 ovarian
[2] = test system: SK-MEL-28 melanoma
[3] = test system: MDA-MB-435
[4] = test system: MOLT-4 leukemia
[5] = test system: NCI-H23 lung
[6] = test system: NCI/ADR-RES ovarian
[7] = test system: MALME-3M melanoma
[8] = test system: SK-MEL-2 melanoma
[9] = test system: OVCAR-5 ovarian
[10] = test system: RXF 393 renal
[11] = test system: A549 NSCLC

Compound	TGI [1] [µM]	TGI [2] [µM]	TGI [3] [µM]	TGI [4] [µM]	TGI [5] [µM]	TGI [6] [µM]	TGI [7] [µM]	TGI [8] [µM]	TGI [9] [µM]	TGI [10] [µM]	TGI [11] [µM]	GI50 [1] [µM]	GI50 [2] [µM]	GI50 [3] [µM]	GI50 [4] [µM]	GI50 [5] [µM]	GI50 [7] [µM]	GI50 [8] [µM]	GI50 [9] [µM]	GI50 [11] [µM]
S=C(NCc1ccccc1)Nc1sc(=NCc2ccccc2)nc2sc3c(c12)CCN(N1CCc2c(sc4nc(=NCc5ccccc5)sc(NC(=S)NCc5ccccc5)c24)C1)C3	> 100	> 79	> 100	> 96.1	> 83.4	> 100	> 100	> 81.8	> 85.2	> 65.9	> 62.9									
CC(=O)Nc1nc(C)c(S(=O)(=O)NC(=O)NC2NC(=O)NC2=O)s1 (stereo not drawn)	> 100	> 100	> 100	> 100	> 100	> 100	> 100	> 100	> 100	> 100	> 100									
C(=N\c1nc2cc3sc(/N=C/c4ccccc4)nc3cc2s1)/c1ccccc1	> 100	> 100	> 100	> 80.9	> 100	> 100	> 100	> 100	> 100	> 100	> 100									
FC1(F)ON2CCc3ccccc3C2[C@H]1c1ccccc1 (stereo partly drawn)	> 100	> 100	> 100	> 100	> 100	> 100	88.8	> 100	> 100	> 100	> 100	> 100	> 100	> 100	> 100	> 100	14.5	> 100	> 100	> 100
C#CC1(O)CCC2[C@@H]3CCc4cc(Oc5nc(F)nc(-c6c(C)c(C(=O)OCC)n7ccccc67)n5)ccc4C3CC[C@@]21C (stereo partly drawn)	> 100	> 100	> 100	> 100	> 100	> 100	> 100	> 100	> 100	> 100	> 100									
CO/C=C(/C(=O)OC)[C@@H]1C[C@@H]1c1ccc2ccccc2c1	70.7	81.4	35.1	65.4	> 100	65.3	50.6	35.1	> 100	> 100	57.4									
Nc1ncnc2c1ncn2[C@H]1C=C[C@@H](NO)C1	> 100	> 100	> 100	> 100	> 100	> 100	> 100	> 100	> 100	> 100	> 100									
NCC(=O)Nc1ccccc1	> 100	> 100	> 100	> 100	> 100	> 100	> 100	> 100	> 100	> 100	> 100									
C[C@H](Nc1nc(N)c(N=O)c(=O)n1C)C(=O)O	> 10	> 10	> 10	> 10	> 10	> 10	> 10	> 10	> 10	> 10	> 10									
COc1ccc(/[N+]([O-])=C/c2ccc(OC(=S)S)c(OC)c2)cc1	> 100	> 100	61.1	> 100	> 100	92.3	> 100	> 100	> 100	50.9	> 100									
Cc1ccc2nc3ccccc3c(C3C4C(=O)N(c5ccc(F)cc5)C(=O)C4ON3C(C(N)=O)c3ccccc3)c2c1 (stereo not drawn)	> 100	> 100	99	> 100	> 100	90.2	80.7	> 100	> 100	> 100	> 100									
CCn1c(SCC(=O)N/N=C2\SCC(=O)N2c2ccc(C)cc2)nc2ccccc2c1=O	43.2	48.7	43.8	> 100	42.2	49.7	45.6	> 100	48.2	53.8	43.3									
Cc1nc(-c2ccccc2)cn2c1nc1ccccc12	57.1	72.8	36.9	> 100	> 77.7	55.7	48.9	43.5	> 31.6	55.5	34.8									
COC(=O)C(CNC(=O)/C=C/c1ccc(OC)c(OC)c1)NC(=O)/C=C/c1ccc(OC)c(OC)c1 (stereo not drawn)	> 100	> 100	> 100	> 100	> 100	> 100	> 100	> 100	> 100	> 100	> 100									
CCOC(=O)c1c(N)sc2c1CC(C)CC2 (stereo not drawn)	> 100	> 100	> 100	> 100	> 100	> 100	> 100	> 100	> 100	44.9	> 100									
C#C[C@]1(O)CC[C@H]2[C@@H]3CCC4=C/C(=N\OCCN5CCCCC5)CC[C@]4(C)[C@H]3CC[C@@]21C	19.1	27.4	8.91	11.6	17.5	15.4	21.6	8.76	28.1	11.3	22.7									
CCOC(=O)c1c(O)cn2c1[nH]c1cccc3cccc2c31	> 100	> 100	> 100	> 100	> 100	> 100	> 100	> 100	> 100	> 100	> 100									
Cn1c(-c2ccco2)ccc1-c1ccc(C=O)o1	> 100	> 100	> 100	74.6	> 100	> 100	> 100	> 100	> 100	> 100	> 100									
CC(C)(C)c1cc(/C=C(\C#N)C2=NCCO2)cc(C(C)(C)C)c1O	21.9	29	32.3	21.1	13.4	10.7	19.6	8.55	10	14.7	19.7									
Cc1ccc2c(c1)nc1n2C(c2c(F)cccc2F)SC1 (stereo not drawn)	> 100	> 100	> 100	87.4	> 100	> 100	93.3	48.2	> 100	96.4	> 100									
O=C(OC1=CCN(Br)C1=O)C1=C(O)C(=O)N(Br)C1	> 100	41.4	> 100	87.7	> 100	> 100	> 100	> 100	52.8	38.5	> 100									
O=C1CCC(C(=O)N2CSCC2C(=O)O)N1 (stereo not drawn) ([pGlu]-[Thz]-OH; configuration not given here)	> 100	> 100	> 100	> 100	> 100	> 100	> 100	> 100	> 100	> 100	> 100									
CC(NC1=NCCO1)c1ccccc1Cl (stereo not drawn)	> 100	> 100	> 100	> 100	> 100	> 100	> 100	> 100	> 100	> 100	> 100									
COC(=O)[C@H](Cc1ccccc1)NC(=O)c1ccc(CNC(=O)/C=C/c2ccc(OCc3ccccc3)cc2)cc1	9.66	25.2	12.8	28	33.5	> 78	11.5	7.92	> 81.6	18.7	> 72.7									
COC1OC2COC1(OCc1ccccc1)C1OC(C)(C)OC21 (stereo not drawn)	> 100	> 100	> 100	> 100	> 100	> 100	> 100	> 100	> 100	> 100	> 100									
COc1ccc(S(=O)(=O)Nc2ccc(-c3csc(N4C(=O)/C(=C/c5ccccc5[N+](=O)[O-])N=C4c4ccccc4)n3)cc2)cc1Cl	> 100	> 100	> 100	> 100	76.8	> 100	> 100	> 100	> 100	> 100	> 100									
CCCCSC1=N/C(=C\c2ccccc2O)C(=O)N1	> 100	> 100	> 100	> 100	> 100	> 100	> 100	> 100	> 100	> 100	> 100									
ClCc1nc2ccccc2[nH]1	> 100	> 100	> 100	> 100	> 100	> 100	> 100	> 100	> 100	> 100	> 100									
NS(=O)(=O)c1ccc(NC(=O)N/N=C/c2ccccc2[N+](=O)[O-])cc1	> 100	> 100	42.7	> 100	> 100	> 100	> 100	> 100	> 100	> 100	> 100									
